Common to all, as to assay type: binding
One test addresses T1, AurA (Homo sapiens, UniProt O14965).
T1 construct: screened for activity against several kinases in Jurkat cells; endogenous in cells; host or cells: Jurkat cell lysate
T1 sequence (O14965 1-403): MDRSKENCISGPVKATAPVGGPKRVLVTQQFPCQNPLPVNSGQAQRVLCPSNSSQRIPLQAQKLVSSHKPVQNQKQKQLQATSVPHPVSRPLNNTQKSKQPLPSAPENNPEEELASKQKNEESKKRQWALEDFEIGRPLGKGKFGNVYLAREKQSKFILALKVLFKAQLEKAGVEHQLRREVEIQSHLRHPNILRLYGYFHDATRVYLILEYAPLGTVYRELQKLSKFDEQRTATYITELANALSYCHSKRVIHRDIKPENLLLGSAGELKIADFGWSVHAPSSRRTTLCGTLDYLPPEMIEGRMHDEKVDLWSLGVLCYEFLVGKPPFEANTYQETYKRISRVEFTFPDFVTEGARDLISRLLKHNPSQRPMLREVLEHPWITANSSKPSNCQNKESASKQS
Nature of the test: Probe-based (AX9989) kinase profiling in Jurkat lysate: AurA. The settings on record: read-out: Kinase inhibition % at indicated screening concentration: AurA; for inhibition at 1 µM: screening concentration 1.0 μM; for inhibition at 0.1 µM: screening concentration 0.1 μM. A digest of the protocol: (§1)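 Read-out: LC/MS intensity of desthiobiotinylated kinase active-site peptides, percent inhibition normalized to no-compound lysate. Jurkat lysate with 20 mM MnCl2 received compound for 15 min at room temperature, then 5 μM AX9989 probe; duplicates.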

The target of another test is T2, JAK1 (Homo sapiens, UniProt P23458).
T2 construct: screened for activity against several kinases in Jurkat cells; endogenous in cells; host or cells: Jurkat cell lysate
T2 sequence (P23458 whole entry): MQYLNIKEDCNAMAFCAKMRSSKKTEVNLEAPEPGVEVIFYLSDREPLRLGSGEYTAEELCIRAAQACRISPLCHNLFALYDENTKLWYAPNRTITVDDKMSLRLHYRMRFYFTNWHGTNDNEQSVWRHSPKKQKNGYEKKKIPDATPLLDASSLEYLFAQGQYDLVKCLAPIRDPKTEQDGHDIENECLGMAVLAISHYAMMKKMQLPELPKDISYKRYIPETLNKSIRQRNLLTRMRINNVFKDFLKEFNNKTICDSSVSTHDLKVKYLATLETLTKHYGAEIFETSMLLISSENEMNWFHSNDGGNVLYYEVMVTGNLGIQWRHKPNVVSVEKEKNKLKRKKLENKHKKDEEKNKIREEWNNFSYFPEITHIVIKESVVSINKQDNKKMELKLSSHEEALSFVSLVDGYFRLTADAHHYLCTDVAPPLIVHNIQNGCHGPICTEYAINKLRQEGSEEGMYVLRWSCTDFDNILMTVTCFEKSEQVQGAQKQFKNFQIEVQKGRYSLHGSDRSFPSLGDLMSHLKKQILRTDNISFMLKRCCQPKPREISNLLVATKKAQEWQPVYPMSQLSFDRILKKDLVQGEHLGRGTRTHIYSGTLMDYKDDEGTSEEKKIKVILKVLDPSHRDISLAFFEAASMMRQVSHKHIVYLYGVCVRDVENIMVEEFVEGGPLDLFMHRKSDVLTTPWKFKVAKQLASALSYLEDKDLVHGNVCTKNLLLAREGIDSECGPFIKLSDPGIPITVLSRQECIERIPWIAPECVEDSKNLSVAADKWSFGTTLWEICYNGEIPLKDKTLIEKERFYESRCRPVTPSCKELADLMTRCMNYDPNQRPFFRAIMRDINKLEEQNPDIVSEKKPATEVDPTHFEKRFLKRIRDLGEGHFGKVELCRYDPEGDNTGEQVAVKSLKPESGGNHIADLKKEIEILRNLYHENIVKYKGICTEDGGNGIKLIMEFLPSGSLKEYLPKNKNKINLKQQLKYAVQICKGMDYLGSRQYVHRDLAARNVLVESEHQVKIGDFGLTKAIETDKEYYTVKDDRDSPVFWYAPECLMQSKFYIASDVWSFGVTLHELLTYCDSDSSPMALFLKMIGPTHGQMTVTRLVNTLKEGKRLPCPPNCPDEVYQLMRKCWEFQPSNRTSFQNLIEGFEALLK
Nature of the test: Probe-based (AX9989) kinase profiling in Jurkat lysate: JAK1. The note with it: read-out: Kinase inhibition % at indicated screening concentration: JAK1; for inhibition at 1 µM: screening concentration 1.0 μM; for inhibition at 0.1 µM: screening concentration 0.1 μM. A digest of the protocol:
as §1

The test system of a further test is AMPKa1 or AMPKa2. Nature of the test: Probe-based (AX9989) kinase profiling in Jurkat lysate: AMPKa1 or AMPKa2. A digest of the protocol:
as §1

Another test concerns the target T3, TAO2 (Homo sapiens, UniProt Q9UL54).
T3 construct: screened for activity against several kinases in Jurkat cells; endogenous in cells; host or cells: Jurkat cell lysate
T3 sequence (Q9UL54 1-1235): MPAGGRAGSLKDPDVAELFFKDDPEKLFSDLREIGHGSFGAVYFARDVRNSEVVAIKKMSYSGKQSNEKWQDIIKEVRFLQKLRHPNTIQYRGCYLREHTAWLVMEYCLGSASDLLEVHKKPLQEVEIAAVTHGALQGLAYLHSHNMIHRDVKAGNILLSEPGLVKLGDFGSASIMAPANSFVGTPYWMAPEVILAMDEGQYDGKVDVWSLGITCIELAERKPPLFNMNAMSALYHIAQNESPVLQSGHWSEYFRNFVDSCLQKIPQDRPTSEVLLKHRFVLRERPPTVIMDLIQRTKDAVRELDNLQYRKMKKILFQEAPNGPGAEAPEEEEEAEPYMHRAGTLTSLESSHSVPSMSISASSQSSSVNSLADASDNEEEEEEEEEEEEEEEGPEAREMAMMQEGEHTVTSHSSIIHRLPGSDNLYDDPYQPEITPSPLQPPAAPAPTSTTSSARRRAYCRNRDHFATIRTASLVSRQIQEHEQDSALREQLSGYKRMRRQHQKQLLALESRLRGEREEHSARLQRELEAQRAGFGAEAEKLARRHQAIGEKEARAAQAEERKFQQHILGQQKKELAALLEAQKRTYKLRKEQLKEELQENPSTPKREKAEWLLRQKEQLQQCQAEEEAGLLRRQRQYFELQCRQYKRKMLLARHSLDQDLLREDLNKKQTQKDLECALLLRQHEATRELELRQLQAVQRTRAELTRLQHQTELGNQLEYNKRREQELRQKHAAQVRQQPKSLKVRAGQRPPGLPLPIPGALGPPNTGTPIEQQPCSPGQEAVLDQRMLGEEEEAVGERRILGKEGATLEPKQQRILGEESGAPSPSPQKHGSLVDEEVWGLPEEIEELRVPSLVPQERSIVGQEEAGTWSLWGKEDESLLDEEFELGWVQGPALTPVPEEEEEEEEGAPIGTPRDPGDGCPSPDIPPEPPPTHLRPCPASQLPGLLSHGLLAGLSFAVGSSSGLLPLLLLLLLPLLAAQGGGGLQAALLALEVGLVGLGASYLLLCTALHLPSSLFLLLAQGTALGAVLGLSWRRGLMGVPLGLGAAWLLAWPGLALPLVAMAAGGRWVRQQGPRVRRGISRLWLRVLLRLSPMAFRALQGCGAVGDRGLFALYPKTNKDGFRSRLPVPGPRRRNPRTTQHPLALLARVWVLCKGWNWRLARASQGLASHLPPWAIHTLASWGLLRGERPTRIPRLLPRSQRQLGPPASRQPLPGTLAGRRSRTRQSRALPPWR
Description: Probe-based (AX9989) kinase profiling in Jurkat lysate: TAO2. The settings on record: read-out: Kinase inhibition % at indicated screening concentration: TAO2; for inhibition at 1 µM: screening concentration 1.0 μM; for inhibition at 0.1 µM: screening concentration 0.1 μM. The gist of the method: as §1

In another test the target is T4, ACK (Homo sapiens, UniProt Q07912).
T4 construct: screened for activity against several kinases in Jurkat cells; endogenous in cells; host or cells: Jurkat cell lysate
T4 sequence (Q07912 whole entry): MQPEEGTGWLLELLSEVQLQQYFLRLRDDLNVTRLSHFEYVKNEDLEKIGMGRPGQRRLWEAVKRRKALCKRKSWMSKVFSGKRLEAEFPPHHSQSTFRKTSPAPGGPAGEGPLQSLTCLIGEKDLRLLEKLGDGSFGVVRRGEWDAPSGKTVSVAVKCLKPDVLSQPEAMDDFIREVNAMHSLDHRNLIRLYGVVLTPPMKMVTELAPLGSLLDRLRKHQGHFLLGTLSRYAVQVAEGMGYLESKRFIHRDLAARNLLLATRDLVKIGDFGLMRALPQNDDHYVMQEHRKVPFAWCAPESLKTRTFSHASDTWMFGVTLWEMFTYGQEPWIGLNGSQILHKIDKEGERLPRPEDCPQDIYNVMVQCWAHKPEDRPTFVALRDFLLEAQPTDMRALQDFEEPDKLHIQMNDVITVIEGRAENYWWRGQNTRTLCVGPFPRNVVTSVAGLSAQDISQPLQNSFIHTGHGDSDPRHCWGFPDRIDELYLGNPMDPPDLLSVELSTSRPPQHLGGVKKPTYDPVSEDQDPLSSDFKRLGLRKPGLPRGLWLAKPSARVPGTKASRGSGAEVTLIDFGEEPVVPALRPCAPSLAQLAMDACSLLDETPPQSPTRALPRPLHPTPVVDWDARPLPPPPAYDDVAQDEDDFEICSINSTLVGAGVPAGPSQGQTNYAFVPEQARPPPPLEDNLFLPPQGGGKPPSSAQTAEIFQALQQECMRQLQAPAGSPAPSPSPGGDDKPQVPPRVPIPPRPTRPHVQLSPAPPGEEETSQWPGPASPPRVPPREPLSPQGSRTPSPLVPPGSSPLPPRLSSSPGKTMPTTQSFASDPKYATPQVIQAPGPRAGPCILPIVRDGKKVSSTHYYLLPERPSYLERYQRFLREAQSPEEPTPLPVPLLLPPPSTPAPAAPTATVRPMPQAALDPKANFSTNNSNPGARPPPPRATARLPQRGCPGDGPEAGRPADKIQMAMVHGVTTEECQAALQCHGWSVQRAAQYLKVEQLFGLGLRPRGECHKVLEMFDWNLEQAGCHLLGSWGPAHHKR
Nature of the test: Probe-based (AX9989) kinase profiling in Jurkat lysate: ACK. The note with it: read-out: Kinase inhibition % at indicated screening concentration: ACK; for inhibition at 1 µM: screening concentration 1.0 μM; for inhibition at 0.1 µM: screening concentration 0.1 μM. A digest of the protocol: as §1

Turning to `CCOc1cc(C(=O)NCCO)ccc1Nc1cc2c(cn1)N(C)C(=O)c1ccccc1N2C` [Compound 66], the inhibition at 1 µM on AurA, at JAK1, on TAO2 and at ACK was not above 35% throughout. The “Kinase inhibition % at indicated screening concentration: AMPKa1 or AMPKa2” value (from here on “Kinase inhibition %”) in the test with AMPKa1 or AMPKa2 (screening concentration 1.0 μM) was “E (E is ≦35%)”.

For `CCOc1cc(C(=O)N2CC[C@@H](N(CC)CC)C2)ccc1Nc1cc2c(cn1)N(C)C(=O)c1occc1N2C` [Compound 67], the inhibition at 0.1 µM at AurA, at JAK1, on TAO2 and on ACK was not above 35% throughout. In the test on AMPKa1 or AMPKa2 (screening concentration 0.1 μM), the “Kinase inhibition %” value is on record as “E (E is ≦35%)”.

As to `CCOc1cc(C(=O)N[C@@H]2CCCOC2)ccc1Nc1cc2c(cn1)N(C)C(=O)c1ccccc1N2C` [Compound 69], the inhibition at 1 µM on AurA, at JAK1, at TAO2 and at ACK was not above 35% each time. Also, in the test on AMPKa1 or AMPKa2 (screening concentration 1.0 μM), the “Kinase inhibition %” value is “E (E is ≦35%)”.

As to `COc1cc(C(=O)N2CCC(N(C)C)C2)ccc1Nc1cc2c(cn1)N(C)C(=O)c1ccccc1N2C` (stereo not shown) [Compound 70], the inhibition at 0.1 µM on AurA, on JAK1, at TAO2 and on ACK was not above 35% in each case. Also, the “Kinase inhibition %” value in the test with AMPKa1 or AMPKa2 (screening concentration 0.1 μM) is “E (E is ≦35%)”.

With `CCOc1cc(C(=O)N2CCCNCC2)ccc1Nc1cc2c(cn1)N(C)C(=O)c1ccccc1N2C` [Compound 71], the inhibition at 1 µM on AurA, at JAK1, on TAO2 and at ACK was not above 35% in each case. Besides, the “Kinase inhibition %” value with AMPKa1 or AMPKa2 (screening concentration 1.0 μM) was “E (E is ≦35%)”.

Turning to `CCOc1cc(C(=O)N2CCC(F)C2)ccc1Nc1cc2c(cn1)N(C)C(=O)c1occc1N2C` (stereo not shown) [Compound 72], the inhibition at 0.1 µM at AurA, on JAK1, on TAO2 and on ACK was not above 35% each time. Also, in the test on AMPKa1 or AMPKa2 (screening concentration 0.1 μM), the “Kinase inhibition %” value is “E (E is ≦35%)”.

Turning to `COc1cc(NS(C)(=O)=O)ccc1Nc1cc2c(cn1)N(C)C(=O)c1ccccc1N2C` [Compound 73], the inhibition at 1 µM at AurA, at JAK1, on TAO2 and on ACK was not above 35% throughout. Moreover, in the test with AMPKa1 or AMPKa2 (screening concentration 1.0 μM), the “Kinase inhibition %” value was “E (E is ≦35%)”.

In the case of `CN1C(=O)c2ccccc2N(C)c2cc(N[C@H]3CC[C@H](N4CCCC4)CC3)ncc21` [Compound 74], the inhibition at 1 µM at AurA, on JAK1, at TAO2 and at ACK was not above 35% throughout. Moreover, the “Kinase inhibition %” value in the test with AMPKa1 or AMPKa2 (screening concentration 1.0 μM) is listed as “E (E is ≦35%)”.

Regarding `CCOc1cc(C(=O)N2CC[C@H](N(C)C)C2)ccc1Nc1cc2c(cn1)N(C)C(=O)c1ccccc1N2C` [Compound 75], the inhibition at 1 µM at AurA, on JAK1, on TAO2 and at ACK was not above 35% each time. For the same molecule, the “Kinase inhibition %” value in the test with AMPKa1 or AMPKa2 (screening concentration 1.0 μM) was “E (E is ≦35%)”.

`CCOc1cc(C(=O)NC2CCOCC2)ccc1Nc1cc2c(cn1)N(C)C(=O)c1ccccc1N2C` [Compound 80]: the inhibition at 1 µM at AurA, on JAK1, on TAO2 and at ACK was not above 35% throughout. In the test with AMPKa1 or AMPKa2 (screening concentration 1.0 μM), the “Kinase inhibition %” value is listed as “E (E is ≦35%)”.

Consider `CCOc1cc(C(=O)N2CCNC[C@H]2C)ccc1Nc1cc2c(cn1)N(C)C(=O)c1ccccc1N2C` [Compound 82], for which the inhibition at 0.1 µM at AurA, at JAK1, on TAO2 and at ACK was not above 35% each time. In the test on AMPKa1 or AMPKa2 (screening concentration 0.1 μM), the “Kinase inhibition %” value was “E (E is ≦35%)”.

Consider `CCOc1cc(C(=O)NCCOC)ccc1Nc1cc2c(cn1)N(C)C(=O)c1ccccc1N2C` [Compound 83], for which the inhibition at 1 µM at AurA, at JAK1, on TAO2 and at ACK was not above 35% each time. Also, in the test with AMPKa1 or AMPKa2 (screening concentration 1.0 μM), the “Kinase inhibition %” value is “E (E is ≦35%)”.

Take `CCOc1cc(C(=O)NCCn2ccnc2)ccc1Nc1cc2c(cn1)N(C)C(=O)c1ccccc1N2C` [Compound 84]: the inhibition at 1 µM at AurA, at JAK1, on TAO2 and on ACK was not above 35% throughout. For the same molecule, the “Kinase inhibition %” value with AMPKa1 or AMPKa2 (screening concentration 1.0 μM) was “E (E is ≦35%)”.

Regarding `CCOc1cc(C(=O)N(C)CCN(C)C)ccc1Nc1cc2c(cn1)N(C)C(=O)c1ccccc1N2C` [Compound 88], the inhibition at 0.1 µM on AurA, on JAK1, at TAO2 and at ACK was not above 35% in each case. For the same molecule, in the test with AMPKa1 or AMPKa2 (screening concentration 0.1 μM), the “Kinase inhibition %” value was “E (E is ≦35%)”.

As to `CCOc1cc(C(=O)N2CCC(N3CCCC3)CC2)ccc1Nc1cc2c(cn1)N(C)C(=O)c1occc1N2C` [Compound 91, 6-((2-Ethoxy-4-(4-(pyrrolidin-1-yl)piperidine-1-carbonyl)phenyl)amino)-4,9-dimethyl-4H-furo[3,2-e]pyrido[3,4-b][1,4]diazepin-10(9H)-one], the inhibition at 0.1 µM at AurA, at JAK1, at TAO2 and at ACK was not above 35% in each case. The “Kinase inhibition %” value in the test with AMPKa1 or AMPKa2 (screening concentration 0.1 μM) was “E (E is ≦35%)”.

With `CCOc1cc(C(=O)N2CCCC(O)C2)ccc1Nc1cc2c(cn1)N(C)C(=O)c1ccccc1N2C` (stereo not shown) [Compound 93], the inhibition at 1 µM at AurA, at JAK1, at TAO2 and on ACK was not above 35% each time. Also, the “Kinase inhibition %” value in the test on AMPKa1 or AMPKa2 (screening concentration 1.0 μM) is listed as “E (E is ≦35%)”.

In the case of `CCOc1cc(C(=O)N2CCN(C(C)(C)C)CC2)ccc1Nc1cc2c(cn1)N(C)C(=O)c1ccccc1N2C` [Compound 94], the inhibition at 0.1 µM on AurA, on JAK1, at TAO2 and at ACK was not above 35% in each case. Further, the “Kinase inhibition %” value in the test on AMPKa1 or AMPKa2 (screening concentration 0.1 μM) is reported as “E (E is ≦35%)”.
